Consider three compounds from BindingDB's records for doi:10.1016/j.bmcl.2010.06.084 (Phenex Pharmaceuticals, 2010).

Bounds are passed on as bounds.

This data set has as its target T1, Nuclear receptor subfamily 1 group I member 2 (Homo sapiens, UniProt O75469).
T1 sequence (O75469 whole entry): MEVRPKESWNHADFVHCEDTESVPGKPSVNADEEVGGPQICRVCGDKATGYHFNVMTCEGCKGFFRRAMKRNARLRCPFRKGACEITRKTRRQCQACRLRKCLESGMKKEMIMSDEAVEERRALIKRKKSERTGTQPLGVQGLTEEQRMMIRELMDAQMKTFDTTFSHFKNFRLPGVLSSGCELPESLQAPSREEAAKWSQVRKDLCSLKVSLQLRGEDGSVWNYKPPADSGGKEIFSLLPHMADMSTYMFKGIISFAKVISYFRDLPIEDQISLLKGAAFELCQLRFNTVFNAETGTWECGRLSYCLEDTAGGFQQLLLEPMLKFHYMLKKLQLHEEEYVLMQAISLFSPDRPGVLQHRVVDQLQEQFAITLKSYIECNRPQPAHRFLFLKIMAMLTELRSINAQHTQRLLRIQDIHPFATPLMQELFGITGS
Briefly: Agonist activity at PXR-LBD expressed in HEK293 cells assessed as Gal4-DBD interaction by cellular mammalian one hybrid assay.

A word on the EC50: it is the concentration that produces a half-maximal response. For `CN(Cc1cccc(C(=O)O)c1)c1ccc(OCc2c(-c3c(Cl)cccc3Cl)noc2C2CC2)nc1C(F)(F)F` [3-(((6-((5-cyclopropyl-3-(2,6-dichlorophenyl)isoxazol-4-yl)methoxy)-2-(trifluoromethyl)pyridin-3-yl)(methyl)amino)methyl)benzoic acid], the EC50 amounted to 390 nM.
Consider `CC(C)c1onc(-c2c(Cl)cccc2Cl)c1COc1ccc(N(C)Cc2ccc(C(=O)O)cc2)c(C(F)(F)F)n1` [4-(((6-((3-(2,6-dichlorophenyl)-5-isopropylisoxazol-4-yl)methoxy)-2-(trifluoromethyl)pyridin-3-yl)(methyl)amino)methyl)benzoic acid], for which the EC50 was greater than 1280 nM.
`CN(Cc1ccc(C(=O)O)cc1)c1ccc(OCc2c(-c3c(Cl)cccc3Cl)noc2C2CC2)nc1C(F)(F)F` [4-(((6-((5-cyclopropyl-3-(2,6-dichlorophenyl)isoxazol-4-yl)methoxy)-2-(trifluoromethyl)pyridin-3-yl)(methyl)amino)methyl)benzoic acid]: the EC50 was 3870 nM.
